Data: PMC10046037, “GABRG2 Variants Associated with Febrile Seizures” (Biomolecules, 2023)

Molecular target: T1, α1β3γ2 GABAA receptor, γ2S325L variant (Homo sapiens, UniProt P14867+P18507+P28472, S325L)
T1 construct: expressed in transfected cells; host or cells: HEK293T
T1 sequence (P14867 28-456): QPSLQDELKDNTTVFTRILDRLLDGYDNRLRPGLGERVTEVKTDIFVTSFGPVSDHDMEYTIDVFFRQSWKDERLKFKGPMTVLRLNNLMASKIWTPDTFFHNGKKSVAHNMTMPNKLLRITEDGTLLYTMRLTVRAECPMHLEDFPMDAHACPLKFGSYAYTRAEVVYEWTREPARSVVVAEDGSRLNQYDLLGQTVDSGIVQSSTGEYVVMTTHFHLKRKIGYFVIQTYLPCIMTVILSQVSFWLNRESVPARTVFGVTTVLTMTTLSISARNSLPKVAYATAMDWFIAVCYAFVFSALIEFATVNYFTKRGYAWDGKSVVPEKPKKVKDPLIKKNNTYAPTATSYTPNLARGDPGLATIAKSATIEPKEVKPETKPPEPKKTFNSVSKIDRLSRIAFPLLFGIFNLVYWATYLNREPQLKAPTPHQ
T1 sequence (P28472 26-473 isoform P28472-2): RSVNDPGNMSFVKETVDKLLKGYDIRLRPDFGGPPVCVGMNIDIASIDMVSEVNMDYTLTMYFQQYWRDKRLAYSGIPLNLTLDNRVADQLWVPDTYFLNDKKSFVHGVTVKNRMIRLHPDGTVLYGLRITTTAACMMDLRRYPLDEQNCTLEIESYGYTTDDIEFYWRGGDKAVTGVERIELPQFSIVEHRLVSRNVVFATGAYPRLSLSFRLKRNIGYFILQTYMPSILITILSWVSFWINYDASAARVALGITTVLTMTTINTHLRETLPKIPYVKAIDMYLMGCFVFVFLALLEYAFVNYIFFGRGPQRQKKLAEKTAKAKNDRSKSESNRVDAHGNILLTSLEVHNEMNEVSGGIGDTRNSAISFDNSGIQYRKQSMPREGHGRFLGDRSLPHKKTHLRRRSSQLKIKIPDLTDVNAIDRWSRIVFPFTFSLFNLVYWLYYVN
T1 sequence (P18507 40-475 S325L): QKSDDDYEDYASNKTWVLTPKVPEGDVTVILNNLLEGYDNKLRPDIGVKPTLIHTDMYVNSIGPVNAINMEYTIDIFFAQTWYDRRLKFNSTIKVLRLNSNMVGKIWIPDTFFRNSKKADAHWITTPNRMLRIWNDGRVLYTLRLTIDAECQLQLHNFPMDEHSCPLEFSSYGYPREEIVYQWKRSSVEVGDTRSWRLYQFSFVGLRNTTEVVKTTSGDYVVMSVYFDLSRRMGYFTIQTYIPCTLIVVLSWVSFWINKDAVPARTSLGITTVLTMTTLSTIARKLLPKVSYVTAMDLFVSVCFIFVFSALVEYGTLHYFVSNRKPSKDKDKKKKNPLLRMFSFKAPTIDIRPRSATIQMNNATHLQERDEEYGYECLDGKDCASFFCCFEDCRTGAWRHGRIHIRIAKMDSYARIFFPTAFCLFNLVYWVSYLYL
Experiment: Automated patch clamp of GABA-elicited currents (SyncroPatch 384PE), γ2S325L
Format: cell-based
Conditions: mean
Procedure: The coding sequences of human α1 (GABRA1, NM_000806), β3 (GABRB3, NM_021912), and γ2 (GABRG2, NM_198904.2) GABAAR subunits were subcloned into the pcDNA3.1 expression vectors (Invitrogen, Waltham, MA, USA).
HEK293T cells (ATCC, CRL-11268) were cultured at 37 °C in a humidified 5% CO2 incubator and maintained in Dulbecco’s modified Eagle’s medium (Invitrogen) supplemented with 10% fetal bovine serum (Life Technologies, Carlsbad, CA, USA), and 100 IU/mL of penicillin/streptomycin (Life Technologies). For the expression experiments, 4 × 10^5 cells were transfected using polyethylenimine (PEI) reagent (40 kD, Polysciences, Warrington, PA, USA) at a DNA: to transfection reagent ratio of 1:2.5 and harvested 36 h after transfection. To express WT and variant α1β3γ2 receptors, a total of 3 µg of α1, β3, and γ2 (WT or mutant) subunit cDNAs were transfected at a ratio of 1:1:1 into 60 mm culture dishes. For the mock-transfected condition, an empty pcDNA3.1 vector was added for a final cDNA transfection amount of 3 μg. For the electrophysiology experiments, 2.5 × 10^5 cells were plated in 100 mm culture dishes and transfected after 24 h with 3 μg of cDNA of each α1, β3, γ2 (wild-type or mutant) subunit, using X-tremeGENE HP DNA transfection Reagent (Roche Diagnostics, Basel, Switzerland), following the manufacturer’s protocol. Recordings were obtained forty-eight hours after transfection.
Whole-cell patch clamp recordings were conducted according to the manufacturer’s standard procedure for the SyncroPatch 384 [31]. Whole-cell voltage-clamp recordings were performed at room temperature on HEK293T cells 48 h after transfection with GABAAR subunits, using the SyncroPatch 384PE (Nanion Technologies, Munich, Germany). Cells, at a concentration of 400,000 cells/mL, were harvested in suspension in external solution containing 140 mM of NaCl, 2 mM of CaCl2, 4 mM of KCl, 1 mM of MgCl2, 5 mM of glucose, and 10 mM of HEPES (pH 7.4 with NaOH, 298 mOsm). The cells were loaded in a multi-hole (4 holes per well) 384-well Nanion patch clamp (NPC) chip with a thick borosilicate glass bottom and an average resistance pore size of […]. Built-in electrophysiological protocols were used, and the data were digitized using PatchControl 384 (Nanion Technologies) application. Using PatchControl 384, electrophysiological parameters, such as seal resistance, capacitance, and series resistance, were determined for each well after the application of a test pulse, and subsequently monitored over time. […] The currents were normalized to the maximal response of each well, and the concentration–response curves were calculated from single-point additions. The EC50 values for each variant or wild-type receptor were calculated across multiple wells for each experimental condition.

NCCCC(=O)O [GABA, γ-aminobutyric acid]
Deactivation (1 mM GABA for 5 ms, HEK293T, -80 mV): 307.7 ms
IMAX (maximal GABA-evoked peak current) (1 mM GABA for 5 ms, HEK293T): 0.78 nA
IMAX variant/IMAX WT (1 mM GABA): 39.07%
Rise Time (10–90% rise time, 1 mM GABA for 5 ms, HEK293T): 68.01 ms
